Source: publication PMC11738990, “A small-molecule TNIK inhibitor targets fibrosis in preclinical and clinical models” (Nature Biotechnology, 2024)
Values joined by “and” are separate entries in the source; they are usually repeats but may differ in a detail not shown here. Identical values can stand only once.

Legend:
C57BL/6 mice [1] = assay: LPS-induced acute lung injury model; type: in vivo, mouse; conditions: G3 Dex 10mpk BID; individual animals, Fig 3E-F; listed as Dex;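 further: bronchoalveolar lavage fluid sampled one day after intratracheal LPS challenge, cytokines measured by ELISA in supernatant, lymphocytes counted on Diff-Quick stained cytospin smears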
Protocol: One day before the first experimental day, animals were grouped. All mice were anesthetized with Zoletil–xylazine (50 mpk and 10 mpk, i.p.). At 0 h, mice received LPS at a dose of 50 μl as 50 μg per mouse (groups 2–5, n = 8 per group) or 50 μl saline (group 1, n = 8 per group) by intratracheal administration. […] In the dexamethasone group (group 5), animals were treated with dexamethasone both 2 h before and 4 h after the LPS challenge. Twenty-four hours after the LPS challenge, animals were euthanized, and BALF samples were collected.
(§1) Mice were first anesthetized with Zoletil–xylazine (50 mpk and 10 mpk, i.p.). Next, a 1.5–2-cm longitudinal incision was made on the ventral side of the neck to expose the trachea by blunt dissection, and curved forceps were placed underneath the trachea. A 10–12-cm piece of suture was then threaded underneath the trachea using forceps. The ends of the suture were then pulled cranially to ‘stretch’ the trachea toward the surgeon. A 20-G needle was then used to poke a hole in the trachea as close to the larynx as possible. A 22-G blunt stainless steel needle connected to PE tubing was placed in the hole and inserted approximately 5–8 mm into the trachea. The cannula was secured in the trachea by tying the suture around it with an overhand knot. A 1-ml syringe containing 0.4 ml saline was gently pushed forward and backward three times to recover BALF fluid. BALF was transferred into empty tubes and stored on ice. This process was repeated twice with 0.3 ml saline for a total volume of 1 ml.
(§2) Total cell numbers were counted with a standard hemocytometer by mixing 20 μl BALF with 20 μl trypan blue. Cytospins were prepared by cytocentrifugation using Cytospins at 106g for 5 min, and then smears of BALF cells were stained with Diff-Quick stain. Cell differentiation was performed by counting at least 400 cells using standard hemocytologic criteria to classify them as alveolar macrophages or monocytes, neutrophils, eosinophils or lymphocytes. The rest of the BALF fluid was centrifuged, and supernatants were collected and stored at −80 °C for cytokine, chemokine and total protein analysis.
(§3) From the collected BALF, concentrations of cytokines were measured from mice in groups 2–7 killed on day 28. Mouse BALF cytokines and chemokines were measured using the ELISA Analysis Kit (Sinobest Bio). Mouse BALF soluble collagen was measured using the Soluble Collagen kit (Biocolor). Mouse lung hydroxyproline content was measured using the Hydroxyproline Assay Kit (Njjcbio).

[2] = system: cyclin-dependent kinase (CDK)2; conditions: 0.1 μM; cited from earlier work
C57BL/6 mice [3] = assay: Bleomycin-induced lung fibrosis model, combination with pirfenidone; type: in vivo, mouse; conditions: PFD 60 BID
Protocol: (§4) Mice received bleomycin on day 1 at a dose of 0.66 mg per kg (equivalent to 1 U per kg), in a volume of 50 μl by intratracheal administration, or received saline (sham group). On day 7, dosing with the corresponding compounds was started. The vehicle group (group 1) was treated with 0.5% methylcellulose BID. […] On days 5 and 21, lung function measurement was performed. On day 28, all animals were killed, and blood and tissue samples were collected along with BALF.
(§5) Lung function was measured according to the HDB standard protocol. Expiratory time, relaxation time, peak expiratory flow and peak inspiratory flow were collected and used to calculate Penh data.
Lung sections were cut at a thickness of 4 μm, dried in an oven for 1 h and stained with M&T using our standard protocol. Briefly, sections were stained with Weigert’s iron hematoxylin working solution for 10 min, stained in Biebrich scarlet–acid fuchsin solution for 10 min, differentiated in phosphomolybdic–phosphotungstic acid solution for 5 min or until the collagen was not red, transferred to aniline blue solution, stained for 1 min and then dedifferentiated in 1% acetic acid solution. Next, sections were dehydrated and coverslipped for subsequent image analysis. For image analysis of collagen deposition, Masson’s trichrome-stained slides were scanned by using Aperio ScanScope Model CS2 (Leica) at ×200 magnification. Images were then opened with HALO. Using the pen tool, the whole left lung section was selected as an annotation layer. The area occupied by blue collagen fibers was measured using the pen tool. The percentage of fibrosis (positive areas) in the selected annotation was then calculated with the program. Fibrosis was expressed as a percentage per lung section.
Sections (4 μm thick) were placed on slides, and, after overnight drying, paraffin was removed with xylene. Next, sections were placed in a graded ethanol series and immersed in distilled water. After heat-induced citrate antigen (pH 6.0) unmasking, sections were immersed in 3% hydrogen peroxide solution for 5 min. […] Next, secondary antibodies conjugated to HRP were added. For image analysis of fibrosis, stained sections were used and scanned with the Aperio CS2 Scanner machine. Images were then opened with HALO. Using the pen tool, the whole left lung section was selected as an annotation layer. The bronchus was excluded in the annotation layer. The area occupied by collagen fibers was measured using the ‘Area Quantification v2.1.3’ module. The percentage of positive areas in the selected annotation was then calculated using the program.

Sprague Dawley rats = assay: Bleomycin-induced lung fibrosis model, inhalation administration; type: in vivo, rat; conditions: Pirfenidone 350 mg/kg; individual animals, Fig 4
Protocol: On day 1 of the study, bleomycin hydrochloride was administered to 8–9-week-old Sprague Dawley rats at a final concentration of 1.5 mg ml^−1 in sodium chloride solution (dosed volume at 1.0 ml per kg) by intratracheal atomization (once in the morning and once in the afternoon) to build the pulmonary fibrosis model.
A German PARI compression atomizer (PARI TurboBOY) was set at an aerosol flow rate of 9–10 l min^−1. […] The dilution flow of aerosol was set at 0 l min^−1, and the pumping-out flow from the chamber was set at 6 l min^−1. The fluid rate was set at 0.5 ml min^−1 for test article replenishment. Before nebulization, aerosol-generation conditions were validated three times.
And these parameters were recorded in real time during the experiment.
For concentration assessment, a glass fiber filter membrane (φ = 37 mm) was used to measure aerosol concentrations during drug administration from approximately day 8 to day 28. Sampling was taken at 5 min (±1 min) after drug administration from a random exposure port. […] Aerosol particle size parameters were calculated with the system software: median mass aerodynamic diameter (MMAD), geometric standard deviation, fine particle fraction (percentage of fine particles with MMAD < 5 μm), etc.
On day 29 and before euthanasia, animals were anesthetized with chloral hydrate (90 mg ml^−1, 5 ml per kg, i.p.). Necks were cut longitudinally at the middle to isolate trachea, and a catheter was intubated into the trachea toward the tail direction and fixed with a suture thread. The anesthetized animals were placed into the plethysmography chamber, to which the airway was connected. The AniRes2005 animal lung function-analysis system was used to assess parameters including FVC, airway resistance and pulmonary compliance. The ventilator respiration rate was set to 65 beats per minute; the respiration ratio was set to 20:10; the negative pressure controller was set to 30 cm H2O. FVC detection was set to pressure-control mode, while pressure was set to 30 cm H2O. The startup mode was selected to automatically detect at the end of breath, and the ‘Start’ button was clicked to passively inhale and then turned to exhale after reaching the set pressure value. Next, the ‘Stop’ button was clicked to complete an FVC detection. Each animal was evaluated for FVC at least five times. The final result was the mean value after the maximum and minimum data were excluded for analysis.

C57BL/6 mice [4] = assay: Unilateral ureteral obstruction (UUO) kidney fibrosis model; conditions: SB525334 100 mg/kg QD, individual animals, Fig 5C-D;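 further: mice had the left ureter ligated on day 0, received treatment from day 0 through day 14 and were killed on day 14 for kidney analysis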
Protocol: The surgery took place on two separate days. Mice were divided into two slots based on their body weight before the day of the surgery. On day 0 (day of surgery), UUO surgery was performed after administration of three types of mixed anesthetic agents (medetomidine, midazolam, butorphanol). Mice were shaved at the incision site, the abdomen was cut open, and the left ureter was exteriorized and ligated with 4-0 silk sutures at two points. Finally, the peritoneum and the skin were closed with sutures.
Treatments were applied from day 0 to day 14. And animals were killed on day 14, and blood and tissue samples were collected.
Frozen kidney samples were processed by an alkaline acid hydrolysis method as follows. […] Next, AC buffer (2.2 M acetic acid and 0.48 M citric acid, 400 μl) was added to the samples, followed by centrifugation to collect the supernatant. […] The samples were then mixed with Ehrlich’s solution (400 μl) and heated at 65 °C for 20 min to develop color. After samples were cooled on ice and centrifuged to remove precipitates, the optical density of each supernatant was measured at 560 nm. Hydroxyproline concentrations were calculated from the hydroxyproline standard curve. Kidney hydroxyproline contents were expressed as μg per mg protein, and the amount of protein was determined using the BCA Protein Assay Kit (Thermo Fisher Scientific).
At the end of the UUO study, the left kidney was fixed in Bouin’s solution and embedded in paraffin. Kidney sections were stained using picro-Sirius red solution (Waldeck). To quantify the interstitial fibrosis area, brightfield images in the corticomedullary region were captured using a digital camera (DFC295) at 200-fold magnification, and the positive areas in five fields per section were measured using ImageJ software (National Institute of Health).
Paraffin sections were deparaffinized and hydrophilized with xylene, 100–70% alcohol series and RO water, and then circles were drawn around the kidney sections. […] After washing with PBS, kidney sections were treated with PBS with Tween-20 (PBST), followed by incubation with Block Ace (DS Pharma Biomedical) at room temperature for 10 min. The sections were incubated with the primary antibody (anti-collagen I) at 4 °C overnight. After washing with PBS, kidney sections were treated with PBST, followed by incubation with secondary antibody at room temperature for 30 min. After washing with PBS, kidney sections were fixed with 1% glutaraldehyde solution at room temperature for 1 min. After washing with RO water, kidney sections were treated with PBST and then colored using a chromogenic substrate (Simple Stain DAB, Nichirei Bioscience). After washing with RO water, kidney sections were immersed in an eightfold-diluted hematoxylin solution for 1 min and washed with RO water immediately. […] For scoring of IHC analyses, brightfield images were captured using a digital camera (DFC295) at 200-fold magnification, and the score in one field per section was determined.

C57BL/6 mice [5] = assay: Bleomycin-induced lung fibrosis model; type: in vivo, mouse; conditions: individual animals
Protocol: as §4, §5, §1, §2, §3
Left lung lobes were removed from each mouse and fixed in 10% NBF solution, embedded in paraffin and processed to obtain 4-μm sections for staining with H&E. H&E-stained slides were scanned using an Aperio ScanScope Model CS2 (Leica) at ×200 magnification. Images were then opened in the HALO Plus 5 workstation (version 2.3, Indica Labs) program. Using the pen annotation tool, the whole-lung section was selected as an annotation layer. The area of vessels was defined as background using the exclusion drawing tool. The total inflammation area was quantified by selecting the dark blue inflammation cells using the pen annotation tool manually. The percentage of H&E staining (inflammation area/total area of the lung) in the selected annotation was then calculated using the program.
Masson’s trichrome staining was conducted using a ready-to-use kit (Trichrome Stain (Masson) Kit, HT15, Sigma-Aldrich) as described by the manufacturer.
Lung sections were cut at a thickness of 4 μm, dried in an oven for 1 h and stained with M&T using our standard protocol.

[6] = G5 Nintedanib 60mpk QD, Fig 3B-C

C[C@@H]1C[C@H]2[C@@H]3CCC4=CC(=O)C=C[C@]4(C)[C@@]3(F)[C@@H](O)C[C@]2(C)[C@@]1(O)C(=O)CO [Dexamethasone, reference compound]
IL-1β (C57BL/6 mice [1]): 90.1547 and 104.645 and 85.96 and 83.2907 and 79.4774 and 99.688 and 85.1973 and 77.1894 | IL-4 (C57BL/6 mice [1]): 38.428 and 35.2518 and 35.7056 and 41.1504 and 38.1255 and 36.613 and 38.8817 and 44.3266 | IL-6 (C57BL/6 mice [1]): 27.9 and 24.66 and 28.93 and 26.28 and 30.56 and 33.5 and 31.73 and 30.41 | IL-7 (C57BL/6 mice [1]): 25.06 and 25.43 and 30.03 and 28.19 and 29.85 and 32.24 and 34.63 and 29.29 | Lymphocytes (C57BL/6 mice [1]): 11000 and 9300 and 5750 and 9600 and 6400 and 32400 and 4950 and 10750 | TNF-alpha (C57BL/6 mice [1]): 362.89 and 452.57 and 397.89 and 371.64 and 437.26 and 448.2 and 351.95 and 301.64

OC1CCC(Oc2cccc3cnc(Nc4ccc5nc[nH]c5c4)nc23)CC1 (stereo not drawn) [NCB-0846]
inhibition [2]: > 80%

Cc1ccc(=O)n(-c2ccccc2)c1 [PFD, reference compound]
Modified Ashcroft Score (C57BL/6 mice [3]): 4.5 and 5.25 and 5 and 4.75 and 5.5 and 4.25 | Cdyn (Sprague Dawley rats): 0.3225 mL/cmH2O and 0.3123 mL/cmH2O and 0.3091 mL/cmH2O and 0.2795 mL/cmH2O and 0.2995 mL/cmH2O and 0.311 mL/cmH2O and 0.2781 mL/cmH2O and 0.3041 mL/cmH2O and 0.3215 mL/cmH2O and 0.2768 mL/cmH2O and 0.3388 mL/cmH2O and 0.3313 mL/cmH2O | FVC (Sprague Dawley rats): 11.834 and 11.621 and 10.998 and 9.152 and 10.235 and 10.576 and 10.334 and 10.683 and 12.105 and 9.791 and 11.908 and 11.529 | HE staining for inflammatory infiltration (Sprague Dawley rats): 7.178 and 19.4033 and 79.9063 and 22.6394 and 11.901 and 21.4024 and 18.4629 and 10.7655 and 14.7132 and 7.539 and 10.0121 and 11.9271 | MT staining for fibrosis (Sprague Dawley rats): 10.0525 and 23.681 and 70.2292 and 22.9771 and 14.4065 and 16.7608 and 19.0061 and 11.0741 and 14.7041 and 7.51 and 11.2668 and 15.3486 | Modified Ashcroft Score (Sprague Dawley rats): 2.42 and 3.08 and 3.92 and 2.83 and 3.17 and 2.75 and 2 and 2.08 and 2.33 and 2.5 | RL (Sprague Dawley rats): 0.1938 cmH2O and 0.2018 cmH2O and 0.2011 cmH2O and 0.2233 cmH2O and 0.2084 cmH2O and 0.2023 cmH2O and 0.2267 cmH2O and 0.2069 cmH2O and 0.196 cmH2O and 0.2278 cmH2O and 0.184 cmH2O and 0.1887 cmH2O

Cc1cccc(-c2[nH]c(C(C)(C)C)nc2-c2ccc3nccnc3c2)n1 [SB525334, reference compound]
Collagen Type 1 score (C57BL/6 mice [4]): 1 | Fibrosis area (sirius red positive area) (C57BL/6 mice [4]; 100 mg/kg): 0.79 and 1.13 and 0.97 and 0.36 and 0.56 and 0.41 and 0.76 and 0.48 | Kidney hydroxyproline (C57BL/6 mice [4]; 100 mg/kg): 3.88 and 4.04 and 4.13 and 2.51 and 3.1 and 4.54 and 4.91

COC(=O)c1ccc2c(c1)NC(=O)/C2=C(\Nc1ccc(N(C)C(=O)CN2CCN(C)CC2)cc1)c1ccccc1 [Nintedanib, reference compound]
HE staining (inflammation area) (C57BL/6 mice [5]; 60mpk QD): 0.45 and 0.15 and 0.63 and 0.09 and 1.34 and 0.26 and 0.72 and 0.83 and 1.48 and 0.9 | IL-1beta in BALF (C57BL/6 mice [5]; 60mpk QD): 168.67 and 169.31 and 175.04 and 171.22 and 152.11 and 187.14 and 147.65 and 164.21 | IL-6 in BALF (C57BL/6 mice [5]; 60mpk QD): 147.17 and 136.31 and 119.43 and 143.55 and 137.52 and 155.01 and 125.46 and 138.12 and 158.63 | monocytes, cell count in BALF (C57BL/6 mice [5]; 60mpk QD): 87000 and 128700 and 121600 and 174600 and 58800 and 161100 and 39800 and 37000 and 99000 and 75600 | neutrophils, cell count in BALF (C57BL/6 mice [5]; 60mpk QD): 0 | Lung function (Penh) (C57BL/6 mice [5]; [6]): 0.5478 and 2.603 and 0.6904 and 2.472 and 0.7934 and 0.9276 and 0.6395 and 0.7208 and 1.0675 and 0.6757 and 1.195 and 2.42 and 0.41 | Masson Trichrome's staining (C57BL/6 mice [5]; [6]): 0.55 and 0.4 and 0.78 and 0.03 and 1.61 and 0.54 and 0.87 and 0.56 and 1.52 and 0.39 | Modified Ashcroft Score (C57BL/6 mice [5]; [6]): 3.5 and 2.5 and 1.75 and 1.25 and 2.25 and 3.25 and 0.5 | collagen I (C57BL/6 mice [5]; [6]): 2.73 and 0.02 and 0.37 and 0.05 and 0.16 and 0.9 and 0.94 and 0.03 and 0.07 | α-SMA (C57BL/6 mice [5]; [6]): 0.19 and 0.04 and 0.06 and 0.17 and 0.42 and 0.08 and 0.45 and 0.15 and 0.22 and 0.14
